Results on four compounds are retold here after ChEMBL document CHEMBL4190383, “Hit discovery of Mycobacterium tuberculosis inosine 5'-monophosphate dehydrogenase, GuaB2, inhibitors” (Bioorg Med Chem Lett, 2018).

Series [1] concerns Mycobacterium tuberculosis. The series is described as follows: Antimicrobial activity against Mycobacterium tuberculosis SRMV2.6 H37Rv by alamar blue assay. The format is functional.
A short description of series [2]: Inhibition of Mycobacterium tuberculosis GuaB2.
Series [3] relates to Candida albicans. As to the kind of experiment: Growth inhibition of Candida albicans at 32 ug/ml. Type of series: functional. To be noted: read-out: GI.
For series [4], the system named is Acinetobacter baumannii. As to the kind of experiment: Growth inhibition of Acinetobacter baumannii at 32 ug/ml. The format is functional. To be noted: read-out: GI.
The test system of series [5] is Mycobacterium tuberculosis. As to the kind of experiment: Antimicrobial activity against Mycobacterium tuberculosis H37Rv by alamar blue assay. The format is functional. On the technique in general: Resazurin is reduced to fluorescent resorufin, in cell work by metabolically active cells.
Series [6] can be described thus: Octanol/water partition coefficient , logP of the compound. Type of series: physicochemical.
The subject of series [7] is Cryptococcus neoformans. As to the kind of experiment: Growth inhibition of Cryptococcus neoformans var. grubii at 32 ug/ml. To be noted: read-out: GI. Type of series: functional.
The target of series [8] is Inosine-5'-monophosphate dehydrogenase 2 (Homo sapiens) (UniProt P12268). As to the kind of experiment: Inhibition of human IMPDH2 at 10 uM.
Sequence of Inosine-5'-monophosphate dehydrogenase 2 (Homo sapiens) (P12268 2-514 limits assumed): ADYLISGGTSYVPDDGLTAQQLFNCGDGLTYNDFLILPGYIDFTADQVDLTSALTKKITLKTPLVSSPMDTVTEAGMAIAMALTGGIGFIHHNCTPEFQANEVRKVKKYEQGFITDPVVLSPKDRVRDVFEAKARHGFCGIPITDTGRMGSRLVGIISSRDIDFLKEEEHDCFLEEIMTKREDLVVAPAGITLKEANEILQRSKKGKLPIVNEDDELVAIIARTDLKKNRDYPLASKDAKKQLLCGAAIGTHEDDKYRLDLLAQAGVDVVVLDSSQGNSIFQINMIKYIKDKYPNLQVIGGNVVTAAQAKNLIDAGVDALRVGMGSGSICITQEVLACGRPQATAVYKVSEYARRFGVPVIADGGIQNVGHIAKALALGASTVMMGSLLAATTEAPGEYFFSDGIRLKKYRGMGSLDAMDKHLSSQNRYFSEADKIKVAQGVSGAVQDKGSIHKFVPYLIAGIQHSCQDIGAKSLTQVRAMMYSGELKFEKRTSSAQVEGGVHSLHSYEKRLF
Series [9] has as its system Klebsiella pneumoniae. As to the kind of experiment: Growth inhibition of Klebsiella pneumoniae at 32 ug/ml. The format is functional. To be noted: read-out: GI.
Series [10] concerns Pseudomonas aeruginosa. The series is described as follows: Growth inhibition of Pseudomonas aeruginosa at 32 ug/ml. The format is functional. To be noted: read-out: GI.
Series [11] concerns Mycobacterium tuberculosis. The series is described as follows: Antimicrobial activity against Mycobacterium tuberculosis H37Rv in presence of 0.08 to 5 ng/ml anhydrotetracycline-induced guaB2 gene silencing by alamar blue assay. The format is functional, organism-based.
Series [12] relates to Escherichia coli. As to the kind of experiment: Growth inhibition of Escherichia coli at 32 ug/ml. Type of series: functional. To be noted: read-out: GI.
Series [13] relates to Staphylococcus aureus. As to the kind of experiment: Growth inhibition of methicillin-resistant Staphylococcus aureus at 32 ug/ml. The format is functional. To be noted: read-out: GI.
Series [14] deals with Mycobacterium tuberculosis. As to the kind of experiment: Inhibition of Mycobacterium tuberculosis GuaB2 at 50 uM.
Series [15] deals with Mycobacterium tuberculosis. The series is described as follows: Antimicrobial activity against Mycobacterium tuberculosis H37Rv in presence of 0.15 ng/ml anhydrotetracycline-induced guaB2 gene silencing by alamar blue assay. The format is functional.
Series [16] has as its system Mycobacterium tuberculosis. The series is described as follows: Antimicrobial activity against Mycobacterium tuberculosis H37Rv in presence of 0.31 ng/ml anhydrotetracycline-induced guaB2 gene silencing by alamar blue assay. Type of series: functional.
Series [17] in a line: Inhibition of Mycobacterium tuberculosis GuaB2 expressed in Escherichia coli BL21(DE3) using [2-2H]-IMP or [2-1H]-IMP and NAD+ incubated for 2 hrs by 1H NMR method.

pIC50, pKi: −log10 of the molar value. ≈ marks a conversion by molar mass, not a printed value. Calls of active or inactive are those of the source. The calls are words filed in the database; no cut-off is given here.

Usually MIC90 stands for an inhibitory concentration at the 90% level, which refers to growth in some studies and to a panel of isolates in others. A low value points to higher susceptibility. What is called pIC50 is the IC50 on a negative log10 scale, so that one unit is a factor of ten. A low value points to a high IC50. By logP is commonly meant the decadic logarithm of the partition coefficient of the neutral form, usually between octanol and water. Read a high logP as higher lipophilicity. Usually inhibition stands for the percentage by which the read-out fell short of the control. Low readings indicate a response near the control, high ones a response far below the control. For `COc1c(C)c2c(c(O)c1C/C=C(\C)CCC(=O)O)C(=O)OC2` [MYCOPHENOLIC ACID], the MIC90 in [1] and in series [5] was 50 µM (≈ 16 µg/mL) throughout. In addition, in [2], the pIC50 was 4.57. Also, the inhibition of growth at 32 µg/mL in series [3] is 96.9%; in series [4], 19.4%; in series [7], 91.4%; in series [9], 3.78%; in [10], 18.8%; in series [12] it was 2.37%. Besides, the inhibition of growth at 32 µg/mL in series [13] is 52.4%. In series [6], the logP was 2.68. Further, the inhibition was determined as 99.9% in [8] and 83% in series [14]. The outcome in series [11] was Active.

Usually MIC stands for the lowest concentration that inhibits growth of the organism. On to `O=C(Cc1ccc(F)c2ccccc12)Nc1ccc2c(c1)COC2=O`, for which the MIC90 in series [1] and in series [5] was 100 µM (≈ 33.5 µg/mL) throughout. The compound further showed a pIC50 in series [2] of 5.52. For the same compound, the inhibition of growth at 32 µg/mL is 5.47% in [3]; -2.02% in [4]; -49.8% in series [7]; 13.4% in series [9]; -3.45% in series [10]; -4.49% in [12]. The inhibition of growth at 32 µg/mL in [13] is 2.37%. For the same compound, the MIC in [15] and in series [16] was 12.5 µM each time. In series [6], the logP was 2.5 to 3.5. The figures for the inhibition in series [8] and in series [14] were 0.1% and 99.9%, respectively. Further, the outcome in [11] was Active.

Broadly, the pKi is the Ki on a negative log10 scale, so that one unit is a factor of ten. A high value points to a small Ki. In series [17], `O=C(Cn1c(-c2cscn2)nc2ccccc21)c1ccc(Br)cc1` showed a pKi of 6.26.

As to `CC(C(=O)Nc1ccc2c(c1)COC2=O)c1ccc(C(=O)c2ccccc2)cc1` (stereo not given), the MIC90 in series [1] and in series [5] was 100 µM (≈ 38.5 µg/mL) in each case. Besides, in series [2], the pIC50 is 5.21. Moreover, the inhibition of growth at 32 µg/mL was 5.25% in series [3]; 1.89% in [4]; -94.7% in series [7]; 15.6% in series [9]; 3.08% in series [10]; -2.97% in series [12]. Moreover, in [13], the inhibition of growth at 32 µg/mL was 25.2%. The logP in series [6] was 3.67. The inhibition worked out at 23% in [8] and 95.2% in [14]. For the same compound, the outcome in series [11] was Active.
